The values below come from patent US9127000B2, “Heterocyclic compounds and uses thereof” (Intellikine, LLC., priority 2011, dated 2015).

Holding throughout (assay type): biochemical
The target in one experiment is T1, PI3K α (Homo sapiens, UniProt P42336).
T1 construct: purchased Upstate
The experiment in a line: PI3-kinase HTRF inhibition assay, PI3K α. To be noted: in vitro. The procedure:
(§1) Commercial kits or systems for assaying PI3-K activities are available. The commercially available kits or systems can be used to screen for inhibitors and/or agonists of PI3-Ks including but not limited to PI 3-Kinase α, β, δ, and γ. Anr exemplary system is PI 3-Kinase (human) HTRF™ Assay from Upstate. […] Briefly, the assay is a time resolved FRET assay that indirectly measures PIP3 product formed by the activity of a PI3-K. The kinase reaction is performed in a microtitre plate (e.g., a 384 well microtitre plate). The total reaction volume is approximately 20 ul per well. In the first step, each well receives 2 ul of test compound in 20% dimethylsulphoxide resulting in a 2% DMSO final concentration. Next, approximately 14.5 ul of a kinase/PIP2 mixture (diluted in 1× reaction buffer) is added per well for a final concentration of 0.25-0.3 ug/ml kinase and 10 μM PIP2. The plate is sealed and incubated for 15 minutes at room temperature. To start the reaction, 3.5 ul of ATP (diluted in 1× reaction buffer) is added per well for a final concentration of 10 μM ATP. The plate is sealed and incubated for 1 hour at room temperature. The reaction is stopped by adding 5ul of Stop Solution per well and then 5 ul of Detection Mix is added per well. The plate is sealed, incubated for 1 hour at room temperature, and then read on an appropriate plate reader. Data is analyzed and IC50s are generated using GraphPad Prism 5. For PI3K α, β, δ, and γ, the nM concentration of inhibitor to reach IC50 is provided Inhibition of PI3K a at lower concentrations than those for β, δ, and γ provides evidence of specificity within this group of kinases. Similar assays, and others known in the art, can be used to measure the percent inhibition of other kinases, including but not limited to PI3K class II kinases, phosphoinositide 4 kinases (PI4K), and phosphoinositide 5 kinases (PI5K).

The next experiment concerns the target T2, PI3K β (Homo sapiens, UniProt P42338).
T2 construct: purchased Upstate
In words: PI3-kinase HTRF inhibition assay, PI3K β. Particulars: in vitro. How it is done:
as §1
(In general: In TR-FRET formats the signal depends on donor and acceptor labels being close together.)

The target of a further experiment is T3, PI3K δ (Homo sapiens, UniProt O00329).
T3 construct: purchased Upstate
The experiment in a line: PI3-kinase HTRF inhibition assay, PI3K δ. Particulars: in vitro. The procedure: as §1

The next experiment addresses T4, PI3K γ (Homo sapiens, UniProt P48736).
T4 construct: purchased Upstate
The experiment in a line: PI3-kinase HTRF inhibition assay, PI3K γ. Particulars: in vitro. How it is done:
as §1

The next experiment has as its target T5, mTORC (Homo sapiens, UniProt P42345).
T5 construct: purchased Invitrogen
The experiment in a line: mTOR inhibition assay (in vitro IC50). The procedure:
The cross-activity or lack thereof of one or more compounds of the present invention against mTor can be measured according to any procedures known in the art or methods disclosed below. The compounds described herein can be tested against recombinant mTOR (Invitrogen) in an assay containing 50 mM HEPES, pH 7.5, 1 mM EGTA, 10 mM MgCl2, 2.5 mM, 0.01% Tween, 10 μM ATP (2.5 μCi of […]), and 3 μg/mL BSA. Rat recombinant PHAS-1/4EBP1 (Calbiochem; 2 mg/mL) is used as a substrate. Reactions are terminated by spotting onto nitrocellulose, which is washed with 1M NaCl/1% phosphoric acid (approximately 6 times, 5-10 minutes each). Sheets are dried and the transferred radioactivity quantitated by phosphorimaging.
Other kits or systems for assaying mTOR activity are commercially available. For instance, one can use Invitrogen's LanthaScreen™ Kinase assay to test the inhibitors of mTOR disclosed herein. This assay is a time resolved FRET platform that measures the phosphorylation of GFP labeled 4EBP1 by mTOR kinase. The kinase reaction is performed in a white 384 well microtitre plate. The total reaction volume is 20 ul per well and the reaction buffer composition is 50 mM HEPES pH7.5, 0.01% Polysorbate 20, 1 mM EGTA, 10 mM MnCl2, and 2 mM DTT. In the first step, each well receives 2 ul of test compound in 20% dimethylsulphoxide resulting in a 2% DMSO final concentration. Next, 8 ul of mTOR diluted in reaction buffer is added per well for a 60 ng/ml final concentration. To start the reaction, 10 ul of an ATP/GFP-4EBP1 mixture (diluted in reaction buffer) is added per well for a final concentration of 10 μM ATP and 0.5 μM GFP-4EBP1. The plate is sealed and incubated for 1 hour at room temperature. The reaction is stopped by adding 10 ul per well of a Tb-anti-pT46 4EBP1 antibody/EDTA mixture (diluted in TR-FRET buffer) for a final concentration of 1.3 nM antibody and 6.7 mM EDTA. The plate is sealed, incubated for 1 hour at room temperature, and then read on a plate reader set up for LanthaScreen™ TR-FRET. Data is analyzed and IC50s are generated using GraphPad Prism 5.

T2 sequence (P42338 whole entry): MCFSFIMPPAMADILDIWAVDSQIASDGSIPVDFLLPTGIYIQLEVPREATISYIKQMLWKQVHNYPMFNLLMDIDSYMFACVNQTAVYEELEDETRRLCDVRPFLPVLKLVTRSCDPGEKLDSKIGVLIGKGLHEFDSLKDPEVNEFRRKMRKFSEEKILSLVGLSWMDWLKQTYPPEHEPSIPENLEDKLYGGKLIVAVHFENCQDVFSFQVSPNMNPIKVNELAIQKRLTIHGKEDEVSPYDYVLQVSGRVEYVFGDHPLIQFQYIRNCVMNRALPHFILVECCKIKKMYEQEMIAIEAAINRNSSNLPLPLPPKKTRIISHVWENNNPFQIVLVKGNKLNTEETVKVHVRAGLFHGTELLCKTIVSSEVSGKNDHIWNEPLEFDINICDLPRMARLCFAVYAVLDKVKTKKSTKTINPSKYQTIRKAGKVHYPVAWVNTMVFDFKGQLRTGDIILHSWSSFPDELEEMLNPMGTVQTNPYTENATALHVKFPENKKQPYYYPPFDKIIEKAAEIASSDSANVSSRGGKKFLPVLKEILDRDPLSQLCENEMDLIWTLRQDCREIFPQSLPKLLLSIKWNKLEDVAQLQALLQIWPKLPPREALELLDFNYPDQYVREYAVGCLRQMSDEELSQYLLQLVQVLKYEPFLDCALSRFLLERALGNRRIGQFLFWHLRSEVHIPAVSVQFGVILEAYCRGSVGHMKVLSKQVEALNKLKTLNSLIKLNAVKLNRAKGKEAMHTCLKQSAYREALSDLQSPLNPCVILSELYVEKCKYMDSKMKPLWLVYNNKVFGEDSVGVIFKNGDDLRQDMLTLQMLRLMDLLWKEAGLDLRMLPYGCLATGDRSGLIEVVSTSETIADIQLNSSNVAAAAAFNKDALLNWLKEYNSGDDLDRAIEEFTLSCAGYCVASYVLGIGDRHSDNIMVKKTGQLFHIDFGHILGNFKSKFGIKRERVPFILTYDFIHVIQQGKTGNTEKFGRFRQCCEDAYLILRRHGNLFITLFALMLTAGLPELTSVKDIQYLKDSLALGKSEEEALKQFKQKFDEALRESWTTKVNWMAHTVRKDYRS
T2 sequence (P27986 whole entry partner): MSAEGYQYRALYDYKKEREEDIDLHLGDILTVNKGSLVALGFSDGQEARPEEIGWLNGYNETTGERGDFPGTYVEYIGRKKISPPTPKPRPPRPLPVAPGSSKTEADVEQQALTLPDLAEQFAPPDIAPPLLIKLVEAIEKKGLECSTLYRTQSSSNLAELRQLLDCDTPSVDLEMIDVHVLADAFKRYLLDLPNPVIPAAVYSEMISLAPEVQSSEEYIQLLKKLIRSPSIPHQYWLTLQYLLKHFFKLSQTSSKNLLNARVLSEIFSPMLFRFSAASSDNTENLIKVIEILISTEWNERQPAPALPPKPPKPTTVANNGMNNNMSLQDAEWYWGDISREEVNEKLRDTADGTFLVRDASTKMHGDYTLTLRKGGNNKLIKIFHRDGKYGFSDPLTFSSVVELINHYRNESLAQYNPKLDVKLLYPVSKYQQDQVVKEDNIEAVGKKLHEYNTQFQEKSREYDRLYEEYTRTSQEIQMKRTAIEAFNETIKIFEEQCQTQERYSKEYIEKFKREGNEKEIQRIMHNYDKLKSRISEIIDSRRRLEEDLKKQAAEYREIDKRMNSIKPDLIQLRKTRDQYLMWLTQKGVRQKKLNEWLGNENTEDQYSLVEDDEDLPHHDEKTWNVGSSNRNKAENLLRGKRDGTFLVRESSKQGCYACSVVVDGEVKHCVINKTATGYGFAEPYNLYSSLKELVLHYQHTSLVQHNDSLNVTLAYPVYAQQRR
T1 sequence (P42336 whole entry): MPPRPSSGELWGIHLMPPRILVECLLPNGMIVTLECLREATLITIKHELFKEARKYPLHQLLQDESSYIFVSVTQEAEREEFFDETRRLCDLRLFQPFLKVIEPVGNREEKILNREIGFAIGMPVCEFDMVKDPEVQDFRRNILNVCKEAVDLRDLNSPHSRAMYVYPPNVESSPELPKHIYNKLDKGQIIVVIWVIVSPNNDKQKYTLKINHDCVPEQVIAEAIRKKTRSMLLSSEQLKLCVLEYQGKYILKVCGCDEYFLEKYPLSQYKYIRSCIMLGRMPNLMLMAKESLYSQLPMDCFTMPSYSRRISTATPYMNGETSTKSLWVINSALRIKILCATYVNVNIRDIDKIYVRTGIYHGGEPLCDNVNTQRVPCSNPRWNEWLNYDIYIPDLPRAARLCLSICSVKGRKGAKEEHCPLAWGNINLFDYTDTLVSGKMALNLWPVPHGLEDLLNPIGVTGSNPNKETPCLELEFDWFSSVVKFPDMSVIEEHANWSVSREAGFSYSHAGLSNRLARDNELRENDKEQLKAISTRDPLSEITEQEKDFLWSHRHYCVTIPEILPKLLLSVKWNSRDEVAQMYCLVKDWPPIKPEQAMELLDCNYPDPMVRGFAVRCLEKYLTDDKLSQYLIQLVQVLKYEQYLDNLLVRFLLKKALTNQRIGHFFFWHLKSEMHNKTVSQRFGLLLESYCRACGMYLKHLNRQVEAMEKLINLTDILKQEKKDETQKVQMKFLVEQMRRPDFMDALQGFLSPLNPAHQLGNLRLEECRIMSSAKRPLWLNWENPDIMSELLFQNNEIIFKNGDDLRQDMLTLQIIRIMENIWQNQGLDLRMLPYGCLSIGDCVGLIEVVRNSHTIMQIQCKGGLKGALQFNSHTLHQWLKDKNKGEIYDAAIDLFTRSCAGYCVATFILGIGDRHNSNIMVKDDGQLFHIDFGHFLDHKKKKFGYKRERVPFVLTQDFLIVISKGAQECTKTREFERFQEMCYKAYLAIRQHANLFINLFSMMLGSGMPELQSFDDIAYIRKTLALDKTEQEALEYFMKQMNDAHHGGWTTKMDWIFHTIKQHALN
T1 sequence (P27986 whole entry partner): as the sequence (P27986 whole entry partner) above
T4 sequence (P48736 whole entry): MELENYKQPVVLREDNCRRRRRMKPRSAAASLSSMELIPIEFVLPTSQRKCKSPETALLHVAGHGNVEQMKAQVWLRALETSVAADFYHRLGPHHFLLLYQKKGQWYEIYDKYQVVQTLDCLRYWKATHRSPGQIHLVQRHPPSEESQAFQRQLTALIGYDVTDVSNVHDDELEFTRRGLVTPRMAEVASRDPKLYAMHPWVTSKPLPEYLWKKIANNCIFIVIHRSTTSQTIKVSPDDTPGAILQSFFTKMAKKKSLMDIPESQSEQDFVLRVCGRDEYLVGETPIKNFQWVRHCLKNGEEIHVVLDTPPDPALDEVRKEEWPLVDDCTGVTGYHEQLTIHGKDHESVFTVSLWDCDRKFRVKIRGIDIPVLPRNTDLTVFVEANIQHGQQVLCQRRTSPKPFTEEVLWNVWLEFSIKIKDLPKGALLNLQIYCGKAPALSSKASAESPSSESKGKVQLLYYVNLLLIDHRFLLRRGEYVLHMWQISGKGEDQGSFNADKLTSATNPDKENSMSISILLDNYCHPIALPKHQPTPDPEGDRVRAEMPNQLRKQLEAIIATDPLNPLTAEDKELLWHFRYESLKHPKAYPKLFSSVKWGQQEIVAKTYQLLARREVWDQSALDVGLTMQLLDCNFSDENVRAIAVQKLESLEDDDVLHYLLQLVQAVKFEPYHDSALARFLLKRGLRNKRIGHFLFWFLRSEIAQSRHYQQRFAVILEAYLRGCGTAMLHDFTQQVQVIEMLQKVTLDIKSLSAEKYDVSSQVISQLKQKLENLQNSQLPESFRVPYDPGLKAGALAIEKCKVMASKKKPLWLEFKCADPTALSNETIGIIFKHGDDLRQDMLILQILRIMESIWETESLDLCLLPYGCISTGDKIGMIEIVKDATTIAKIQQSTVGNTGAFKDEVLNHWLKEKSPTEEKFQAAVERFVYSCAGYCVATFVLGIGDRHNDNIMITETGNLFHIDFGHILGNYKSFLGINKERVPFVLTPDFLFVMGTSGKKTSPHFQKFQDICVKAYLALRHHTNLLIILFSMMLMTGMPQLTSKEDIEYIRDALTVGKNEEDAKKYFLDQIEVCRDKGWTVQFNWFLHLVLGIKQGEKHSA
T3 sequence (O00329 whole entry): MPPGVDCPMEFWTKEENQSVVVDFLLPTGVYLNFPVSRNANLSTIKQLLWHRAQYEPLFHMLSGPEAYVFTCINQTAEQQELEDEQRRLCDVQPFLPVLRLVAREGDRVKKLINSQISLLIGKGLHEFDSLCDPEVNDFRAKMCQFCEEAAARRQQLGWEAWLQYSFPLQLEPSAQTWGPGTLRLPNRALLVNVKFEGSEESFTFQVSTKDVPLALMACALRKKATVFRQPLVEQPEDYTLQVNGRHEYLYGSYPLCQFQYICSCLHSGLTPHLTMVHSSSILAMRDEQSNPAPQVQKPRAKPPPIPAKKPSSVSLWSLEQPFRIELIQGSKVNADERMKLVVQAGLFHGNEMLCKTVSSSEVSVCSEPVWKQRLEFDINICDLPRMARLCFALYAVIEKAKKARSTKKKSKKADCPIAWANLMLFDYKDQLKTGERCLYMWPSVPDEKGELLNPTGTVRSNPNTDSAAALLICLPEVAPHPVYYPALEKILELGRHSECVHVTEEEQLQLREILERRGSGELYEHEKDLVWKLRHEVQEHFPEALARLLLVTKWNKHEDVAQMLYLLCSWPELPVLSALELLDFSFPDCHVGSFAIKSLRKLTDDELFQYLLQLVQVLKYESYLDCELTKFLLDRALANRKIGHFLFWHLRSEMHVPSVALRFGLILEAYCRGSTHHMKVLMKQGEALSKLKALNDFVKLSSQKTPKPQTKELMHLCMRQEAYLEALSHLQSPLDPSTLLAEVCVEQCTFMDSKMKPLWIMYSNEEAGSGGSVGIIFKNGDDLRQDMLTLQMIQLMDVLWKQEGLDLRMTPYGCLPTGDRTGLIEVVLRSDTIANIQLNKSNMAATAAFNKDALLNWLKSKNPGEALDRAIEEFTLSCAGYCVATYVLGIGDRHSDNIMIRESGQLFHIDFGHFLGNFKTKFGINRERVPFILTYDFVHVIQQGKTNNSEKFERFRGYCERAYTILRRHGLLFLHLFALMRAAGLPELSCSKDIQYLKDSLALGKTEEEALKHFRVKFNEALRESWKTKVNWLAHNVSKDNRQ
T3 sequence (P27986 whole entry partner): as the sequence (P27986 whole entry partner) above

For orientation: IC50 means the midpoint of a concentration-inhibition curve. As to `CN1CCN(Cc2nnc3ccc(-c4ccc5nc(N)oc5c4)cn23)CC1` [Compound 18], the IC50 at PI3K α, at PI3K β, on PI3K δ and at PI3K γ was > 10 µM each time.

`Nc1nc2cc(-c3ccc4ncc(C(=O)NCCOCC(=O)O)n4c3)ccc2o1` [Compound 22]: the IC50 against PI3K α was < 0.1 µM; against PI3K β it was < 1 µM; at PI3K γ, < 0.1 µM.

With `[2H]c1c(-c2ccc3ncc(C(=O)N4CCOCC4)n3c2)c([2H])c2nc(N)oc2c1[2H]` [Compound 2], the IC50 was < 0.1 µM against PI3K α, < 10 µM on PI3K β, > 10 µM against PI3K δ and < 0.1 µM at PI3K γ.

For `CN1CCN(CCc2nnc3ccc(-c4ccc5nc(N)oc5c4)cn23)CC1` [Compound 16], the IC50 on PI3K α, at PI3K β, at PI3K δ and on PI3K γ was > 10 µM in each case.

In the case of `Nc1nc2cc(-c3ccc4ncc(C(=O)NCCOCCO)n4c3)ccc2o1` [Compound 21], the half-maximal inhibitory concentration (IC50) at PI3K α is < 1 µM; against PI3K β, < 10 µM; on PI3K δ it was < 10 µM; at PI3K γ, < 1 µM.

On to `CN1CCN(c2nnc3ccc(-c4ccc5nc(N)oc5c4)cn23)CC1` [Compound 13], for which the IC50 on PI3K α, against PI3K β, against PI3K δ and against PI3K γ was > 10 µM in each case.

Regarding `O=C(c1cnc2ccc(-c3cncc4c3cnn4CCO)cn12)N1CCOCC1` [Compound 10], the IC50 against PI3K α, against PI3K β, on PI3K δ and at PI3K γ was > 10 µM each time.

As to `Cc1ncc(-c2ccc3ncc(C(=O)N4C5CCC4COC5)n3c2)c2cn[nH]c12` [Compound 9], the IC50 at mTORC is > 10 µM; on PI3K α, < 0.1 µM; at PI3K β, > 10 µM; on PI3K δ, < 10 µM; against PI3K γ, > 10 µM.

Consider `Nc1nc2cc(-c3cnc4ccc(C(=O)N5C6CCC5COC6)cn34)ccc2o1` [Compound 11], for which the IC50 against PI3K α, against PI3K β, at PI3K δ and against PI3K γ was > 10 µM in each case.

In the case of `O=C(c1cnc2ccc(-c3cnc4cc[nH]c4c3)cn12)N1CCOCC1` [Compound 5], the IC50 on PI3K α is < 10 µM; at PI3K β it was > 10 µM; on PI3K δ it was > 10 µM; at PI3K γ, > 10 µM.

As for `Cc1ncc(-c2ccc3ncc(C(=O)N4CCOCC4)n3c2)c2cn[nH]c12` [Compound 1], the IC50 on PI3K α was < 0.1 µM; against PI3K β it was > 10 µM; at PI3K δ, < 10 µM; at PI3K γ it was > 10 µM.

Take `O=C(c1cnc2ccc(-c3ccnc4[nH]ncc34)cn12)N1CCOCC1` [Compound 3]: the IC50 was > 10 µM at mTORC; < 10 µM at PI3K α; > 10 µM against PI3K β; > 10 µM against PI3K δ; > 10 µM against PI3K γ.

In the case of `Cc1ncc(-c2ccc3ncc(C(=O)N4CCOCC4)n3c2)c2cc[nH]c12` [Compound 7], the IC50 on PI3K α was < 10 µM; on PI3K β, > 10 µM; against PI3K δ it was > 10 µM; at PI3K γ, > 10 µM.

Take `CN1CC2CN(C(=O)c3cnc4ccc(-c5ccc6oc(N)nc6c5)cn34)CC2C1` (stereo not shown) [Compound 4]: the IC50 is > 10 µM at mTORC; < 0.1 µM on PI3K α; < 1 µM at PI3K β; < 1 µM at PI3K δ; < 1 µM at PI3K γ.

For `Cn1ncc2c(-c3ccc4ncc(C(=O)N5CCOCC5)n4c3)cncc21` [Compound 8], the IC50 against PI3K α was < 10 µM; against PI3K β it was > 10 µM; at PI3K δ it was > 10 µM; at PI3K γ it was < 10 µM.

In the case of `Nc1nc2cc(-c3cnc4ccc(C(=O)N5CCOCC5)cn34)ccc2o1` [Compound 12], the half-maximal inhibitory concentration (IC50) on PI3K α, against PI3K β and against PI3K δ was > 10 µM throughout.

Regarding `Nc1nc2ccc(-c3ccc4ncc(C(=O)N5CCOCC5)n4c3)cc2[nH]1` [Compound 15], the IC50 against PI3K α was < 1 µM; on PI3K β it was > 10 µM; on PI3K δ it was > 10 µM; against PI3K γ, > 10 µM.

Consider `O=C(c1cnc2ccc(-c3cnc4cn[nH]c4c3)cn12)N1CCOCC1` [Compound 6], for which the IC50 against PI3K β, against PI3K δ and against PI3K γ was > 10 µM throughout.

On to `Cc1cc(-c2ccc3nc(N)oc3c2)cn2c(N3CCN(C)CC3)nnc12` [Compound 17], for which the IC50 against PI3K α, against PI3K β, against PI3K δ and against PI3K γ was > 10 µM each time.

On to `Cc1cc(-c2ccc3nc(N)oc3c2)cn2c(-c3ccncc3)nnc12` [Compound 14], for which the IC50 at PI3K α was > 10 µM; against PI3K β, < 10 µM; at PI3K δ it was > 10 µM; at PI3K γ, > 10 µM.

Consider `Cc1cc(-c2ccc3nc(N)oc3c2)cn2c(CN3CCN(C)CC3)nnc12` [Compound 20], for which the IC50 on PI3K α, against PI3K β, against PI3K δ and against PI3K γ was > 10 µM throughout.

Consider `Cc1cc(-c2ccc3nc(N)oc3c2)cn2c(CCN3CCN(C)CC3)nnc12` [Compound 19], for which the IC50 against PI3K α, against PI3K β, at PI3K δ and against PI3K γ was > 10 µM throughout.
